pIC50: −log10 of the molar value.

Sequence of full length MPS1 (P33981 whole entry): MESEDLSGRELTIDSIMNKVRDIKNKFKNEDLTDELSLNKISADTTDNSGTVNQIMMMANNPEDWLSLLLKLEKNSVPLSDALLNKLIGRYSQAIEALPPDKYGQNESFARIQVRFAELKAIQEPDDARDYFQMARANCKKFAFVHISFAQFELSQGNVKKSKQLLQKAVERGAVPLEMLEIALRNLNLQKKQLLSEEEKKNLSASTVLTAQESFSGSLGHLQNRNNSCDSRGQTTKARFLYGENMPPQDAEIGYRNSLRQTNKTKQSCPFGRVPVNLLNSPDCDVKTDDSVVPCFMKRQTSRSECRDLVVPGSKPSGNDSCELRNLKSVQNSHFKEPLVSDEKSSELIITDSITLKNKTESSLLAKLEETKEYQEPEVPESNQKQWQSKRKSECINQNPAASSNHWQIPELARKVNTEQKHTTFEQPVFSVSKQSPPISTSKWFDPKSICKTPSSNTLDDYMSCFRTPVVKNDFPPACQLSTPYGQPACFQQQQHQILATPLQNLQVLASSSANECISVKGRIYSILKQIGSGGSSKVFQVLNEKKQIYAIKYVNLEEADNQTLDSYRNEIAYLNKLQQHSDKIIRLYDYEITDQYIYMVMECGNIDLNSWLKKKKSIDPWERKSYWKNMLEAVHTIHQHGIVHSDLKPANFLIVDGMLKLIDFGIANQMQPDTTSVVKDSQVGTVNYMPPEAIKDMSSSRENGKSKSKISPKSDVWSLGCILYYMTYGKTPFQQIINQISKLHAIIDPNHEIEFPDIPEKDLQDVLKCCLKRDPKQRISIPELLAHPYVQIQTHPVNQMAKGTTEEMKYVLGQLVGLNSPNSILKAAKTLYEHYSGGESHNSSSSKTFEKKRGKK

This assay deals with full length MPS1 (Homo sapiens (Human), UniProt P33981). Nature of the assay: Measurement of inhibition of MPS1 kinase (Caliper EZ reader mobility-shift enzyme assay). The format is biochemical. The following applies: full length MPS1 12.5 nM or 3 nM, H236 peptide 5 μM, ATP 10 μM, 60 min at room temperature. As to the method:
Measurement of Inhibition of MPS1 Kinase
The reaction was carried out for 60 min at room temperature and stopped by the addition of buffer (10 μl) containing 20 mM EDTA, 0.05% (v/v) Brij-35, in 0.1M HEPES-buffered saline (Free acid, Sigma, UK). The plate was read on a Caliper EZ reader II (Caliper Life Sciences).
The % inhibition of the compounds is calculated relative to the means of selected control wells.
Consider `COc1cc(-c2cnc(C)n2C)ccc1Nc1cc2c(-c3cnn(C)c3)cccc2cn1` [Example 10, N-(4-(1,2-dimethyl-1H-imidazol-5-yl)-2-methoxyphenyl)-5-(1-methyl-1H-pyrazol-4-yl)isoquinolin-3-amine], for which the pIC50 was 8.22.

Regarding `COc1cc(C(=O)N2CC(OC)C2)ccc1Nc1cc2c(-c3cn(C)nc3C)cccc2cn1` [Example 8, (4-((5-(1,3-dimethyl-1H-pyrazol-4-yl)isoquinolin-3-yl)amino)-3-methoxyphenyl)(3-methoxyazetidin-1-yl)methanone], the pIC50 was 7.57.

With `COc1cc(-c2cnn(C)c2)ccc1Nc1ncc2ccnc(NCC3(C)COC3)c2n1` [Example 109, N^2-(2-methoxy-4-(1-methyl-1H-pyrazol-4-yl)phenyl)-N^8-((3-methyloxetan-3-yl)methyl)pyrido(3,4-d]pyrimidine-2,8-diamine], the pIC50 is 8.70.

With `COc1cc(-c2cnn(C)c2)ccc1Nc1ncc2ccnc(N(C)C3CCOCC3)c2n1` [Example 81, N2-(2-methoxy-4-(1-methyl-1H-pyrazol-4-yl)phenyl)-N8-methyl-N8-(tetrahydro-2H-pyran-4-yl)pyrido[3,4-d]pyrimidine-2,8-diamine], the negative logarithm of the IC50 (pIC50) was 7.48.

With `COc1cc(-c2cnn(C)c2)ccc1Nc1ncc2ccnc(NCC3(O)CCC3)c2n1` [Example 89, 1-((2-(2-methoxy-4-(1-methyl-1H-pyrazol-4-yl)phenylamino)pyrido[3,4-d]pyrimidin-8-ylamino)methyl)cyclobutanol], the pIC50 is 8.15.

Regarding `COc1cc(-c2cnn(C)c2)ccc1Nc1ncc2ccnc(N3CCS(=O)(=O)CC3)c2n1` [Example 118, 4-(2-((2-methoxy-4-(1-methyl-1H-pyrazol-4-yl)phenyl)amino)pyrido[3,4-d]pyrimidin-8-yl)thiomorpholine 1,1-dioxide], the pIC50 was 7.96.

`COc1cc(-c2cn(C)nc2C)ccc1Nc1ncc2ccnc(NCC3(C)CCOC3)c2n1` (centres unmarked) [Example 191]: the pIC50 was 8.70.

Regarding `COc1cc(-c2nncn2C)ccc1Nc1ncc2c(C)cnc(NCC3(C)CCOC3)c2n1` (centres unmarked) [Example 156, N^2-(2-methoxy-4-(4-methyl-4H-1,2,4-triazol-3-yl)phenyl)-5-methyl-N^8-((3-methyltetrahydrofuran-3-yl)methyl)pyrido[3,4-d]pyrimidine-2,8-diamine], the pIC50 is 8.30.

For `COc1cc(C(=O)N2CC(OC)C2)ccc1Nc1ncc2ccnc(NCC(C)(C)C)c2n1` [Example 153, (3-methoxy-4-(8-(neopentylamino)pyrido[3,4-d]pyrimidin-2-ylamino)phenyl)(3-methoxyazetidin-1-yl)methanone], the pIC50 was 8.40.

For `COc1cc(-c2cnn(C)c2)ccc1Nc1ncc2ccnc(NCC3(F)COC3)c2n1` [Example 124, N^8-((3-fluorooexetan-3-yl)methyl)-N^2-(2-methoxy-4-(1-methyl-1H-pyrazol-4-yl)phenyl)pyrido[3,4-d]pyrimidine-2,8-diamine], the pIC50 was less than 6.00.

Take `COc1cc(-c2cnn(C)c2)ccc1Nc1ncc2ccnc(NCC(C)(C)O)c2n1` [Example 71, 1-((2-((2-methoxy-4-(1-methyl-1H-pyrazol-4-yl)phenyl)amino)pyrido[3,4-d]pyrimidin-8-yl)amino)-2-methylpropan-2-ol]: the pIC50 is 8.22.

As to `COc1cc(-c2ncnn2C)ccc1Nc1ncc2cc(C)nc(NCC(C)(C)OC)c2n1` [Example 196], the pIC50 was 7.70.

On to `COc1cc(-c2cnn(C)c2C)ccc1Nc1ncc2ccnc(NCC3(C)CCOC3)c2n1` (centres unmarked) [Example 148, N^2-(4-(1,5-dimethyl-1H-pyrazol-4-yl)-2-methoxyphenyl)-N^8-((3-methyltetrahydrofuran-3-yl)methyl)pyrido[3,4-d]pyrimidine-2,8-diamine], for which the negative logarithm of the IC50 (pIC50) was 8.52.

In the case of `COc1cc(-c2cnn(C)c2)ccc1Nc1ncc2cc(C)nc(NCC(C)(C)C)c2n1` [Example 51, N^2-(2-methoxy-4-(1-methyl-1H-pyrazol-4-yl)phenyl)-6-methyl-N8-neopentylpyrido[3,4-d]pyrimidine-2,8-diamine], the pIC50 is 7.54.

As a reminder, the pIC50 is −log10 of the IC50, conventionally taken in molar units.

The values are drawn from patent publication US9409907B2, “Inhibitor compounds” (Cancer Research Technology Limited, priority 2012, dated 2016).
